Source: patent US20050261306A1, “Anti-neurodegenerative agents” (priority 2002, published 2005)

Legend:
[1] = test system: Mongolian gerbils; assay: Mongolian gerbil common carotid artery occlusion, hippocampus CA1 region histology (Examples 6-1 to 6-4); format: in vivo; conditions: oral, 8, 40, 80 or 240 mg; carotid arteries occluded for ten minutes; hematoxylin-eosin sections
Method: A candidate compound was dissolved in physiological saline solution to prepare a 100 mM solution with the pH adjusted to 3 to 4 with 1 N NaOH as necessary. This solution was stored. The solution was diluted with physiological saline at time of use to prepare 0.5 ml of a solution containing 8 mg (Example 6-1), 40 mg (Example 6-2), 80 mg (Example 6-3), or 240 mg (Example 6-4) of a candidate compound. The above solution was administered to Mongolian gerbils. In Examples 6-1 to 6-3, 0.5 ml of the above solution was orally administered every 24 hours. In Example 6-4 the solutions was administered once.
Two hours after the second administration in Examples 6-1 to 6-3, both Mongolian gerbil common carotid arteries were occluded for ten minutes. The gerbils were sacrificed five days later. Two hours after administration in Example 6-4, both Mongolian gerbil common carotid arteries were occluded for ten minutes, and the gerbils were sacrificed three days later. Hematoxylin-eosin stained cross-sections of the brain hippocampus CA1 region tissue were prepared, and the stained sections were expand. […]

[2] = test system: NAIP; assay: NAIP production by western blotting in retinoic acid treated H-SY5Y cells (Example 2); format: cell-based; conditions: low or high concentration of retinoic acid, 30 μl/ml of 10 mM candidate compound solution, one day, vs controls (lanes 1 and 3)
Method: • (1) 3 ml/well of DMEM-HG medium containing H-SY5Y cells (ATCC CRL 2266 strain obtained from American Type Culture Collection; 1×10^5 cells/ml), 10% fetal bovine serum (FBS), 100 units/ml penicillin, and 100 μg/ml streptomycin was aliquoted into each well of a 6 well plate, and incubated for two days at 37° C. Either 3 μl/well (lane 2) or 15 μl/well (lane 4) of all-trans retinoic acid (2 mM) was then added to each well. Wells were then incubated for tree days at 37° C. • (2) Next, 30 μl/ml of candidate compound solution (10 mM) was added to each well and incubated for one day at 37° C. After incubation, each well was washed with 0.25 M NaCl, then filled with 10% trichloroacetic acid (TCA) on ice, and kept on ice for ten minutes. Cells were collected with a scrap and centrifuged (14,000 rpm, ten minutes, 4° C.). To prepare the samples for electrophoresis, 100 μl of urea TX solution (9 M urea solution containing 2% Triton X-100 and 5% 2-mercaptoethanol), 25 μl of 10% lithium dodecyl sulfate (LDS) solution, and 2 μl of 2M Tris solution were added to the obtained pellets. The samples were stored at −80° C. • (3) The samples for electrophoresis obtained in (2) were homogenized and then 10 μl of each sample was loaded onto READYGELSJ (Bio Rad Laboratories) and electrophoresed at 120 V for 75 minutes to conduct SDS-PAGE. […]

[3] = test system: ALS model mice; assay: Therapeutic effect in ALS model mice (Cu/Zn-SOD gene transgenic mouse) (Example 7); format: in vivo
Method: The in vivo therapeutic effect of compound 1 was examined using an Amyotrophic Lateral Sclerosis (ALS) model animal.
A Cu/Zn-SOD gene transgenic mouse (Saishin Igaku, Vol. 57 (7), “new Amyotrophic Lateral Sclerosis (ALS) model animals”, July, 2002: p. 1622-1627: obtained from Dr. Masashi Aoki at Tohoku University, School of Medicine, Neurology) was used. The ALS model mice were divided into three groups (physiological saline administered group, compound 1 (8 mg/kg) administered group, compound 1 (40 mg/kg) administered group). Physiological saline, compound 1 (8 mg/kg), and compound 1 (40 mg/kg) were orally administered to each ALS mouse once a day from about 7 days before the predicted day of the symptom development (138-139 days after birth) until the day the mice died.

[4] = test system: HeLa cells; assay: Cell-death suppressing effect in HeLa cells with cell-death inducing agent, Alamar Blue viable cell count (Example 3); format: cell-based; conditions: final concentration of 10 μM of each compound at the time of incubation
Method: • (1) HeLa cells (ATCC CCL2 strain obtained from American Type Culture Collection; 1×10^6 cells/ml) were incubated for ten hours at 37° C. under 5% CO2 in DMEM-HG medium supplemented with 10% FBS, 100 units/ml penicillin, and 100 μg/ml streptomycin in a T75 flask. A 250 μl solution containing a candidate compound (10 μM-10 mM) was added to 25 ml of the above culture and incubated for an additional 1, 1.5, or 2 days at 37° C. under 5% CO2. Cells were recovered, washed with the above medium, and counted. The cells were resuspended in the above fresh medium so the medium contained 1×10^5 cells/ml. • (2) 150 μl of the suspension obtained in (1) was added into each well of a 96 well plate and the plate was incubated for four hours at 37° C. […] After ten hours, luminescence was measured with a luminescence detector to determine the viable cell count at excitation and detection wavelengths of 530 nm and 560 nm, respectively. Moreover, the viable cell count of the control, which was prepared in the same way except that a candidate compound solution was not added “Control”) or DMSO was added instead of a candidate compound “DMSO”), was also determined. […]

Row | Compound | suppression of cell deformation and deciduation in the CA1 region [1] | 160 kDa bands, presumably derived from NAIP [2] | Days before symptom development (P < 0.01) ([3]; 8 mg/kg orally once a day) [days] | Days between symptom development and death (P < 0.01) ([3]; 8 mg/kg orally once a day) [days] | Days of survival (P < 0.01) ([3]; 8 mg/kg orally once a day) [days] | Days before symptom development (P < 0.01) ([3]; 40 mg/kg orally once a day) [days] | Days between symptom development and death (P < 0.01) ([3]; 40 mg/kg orally once a day) [days] | Days of survival (P < 0.01) ([3]; 40 mg/kg orally once a day) [days] | effect on onset and on period between development of symptoms and death ([3]; 40 mg/kg orally once a day) | Result (cell-death suppressing effect, tests of Example 3) [4]
1 | Clc1ccc(N2CCN(Cc3c[nH]c4ncccc34)CC2)cc1 [Compound 1] | dose-dependent suppression of cell deformation and deciduation in the CA1 region | significantly strong 160 kDa bands | 138.1 ± 1.9 | 23.6 ± 2.0 | 161.7 ± 3.3 | 145.2 ± 1.8 | 28.9 ± 1.6 | 174.6 ± 2.4 | delaying the onset and prolonging the period between the development of symptoms and the death | 
2 | Cc1c(C2CCN(CCc3ccccc3)CC2)noc1-c1ccc(Cl)cc1 [Compound 2, 5-(4-chlorophenyl)-4-methyl-3-(1-(2-phenylethyl)piperidin 4-yl) isoxazole] |  |  |  |  |  |  |  |  |  | + or ±
